The subject of this experiment is P388 leukemia ip, CD2F1 mice, survival T/C. Put plainly: NCI In Vivo Anticancer Drug Screen. Data for tumor model P388 Leukemia (intraperitoneal) in CD2F1 (CDF1) mice. Particulars: endpoint: median survival time, higher = longer survival. An outline of the steps:
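Mice carrying the transplanted tumor received test compound or vehicle. Survival was recorded in each group, and the value is the treated-group measurement divided by that of the vehicle-treated control group.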

Setting [1] is: dose: 50.0 mg/kg/injection, schedule: Q01DX005 (ip), vehicle: saline with Tween-80.
Where [2] appears, read: dose: 100.0 mg/kg/injection, schedule: Q01DX005 (ip), vehicle: saline with Tween-80.
Where [3] appears, read: dose: 200.0 mg/kg/injection, schedule: Q01DX005 (ip), vehicle: saline with Tween-80.
The mark [4] stands for this setting: dose: 60.0 mg/kg/injection, schedule: Q01DX005 (ip), vehicle: saline with Tween-80.
The mark [5] stands for this setting: dose: 120.0 mg/kg/injection, schedule: Q01DX005 (ip), vehicle: saline with Tween-80.
Where [6] appears, read: dose: 240.0 mg/kg/injection, schedule: Q01DX005 (ip), vehicle: saline with Tween-80.

Inconclusive results and toxic doses are left out.

In the case of `O=c1[nH]c(=S)[nH]nc1/C=C/c1cccc(I)c1`, the T/C runs as follows: (dose: 12.5 mg/kg/injection, schedule: Q04DX002 (ip), vehicle: saline) 100 % of control; (dose: 25.0 mg/kg/injection, schedule: Q04DX002 (ip), vehicle: saline) 100 % of control; (dose: 50.0 mg/kg/injection, schedule: Q04DX002 (ip), vehicle: saline) 100 % of control; (dose: 200.0 mg/kg/injection, schedule: Q04DX002 (ip), vehicle: saline) 106 % of control.
Turning to `C[n+]1c2cc(N)ccc2cc2ccc(N)cc21`, the T/C was 121 % of control (dose: 3.12 mg/kg/injection, schedule: Q01DX005 (ip), vehicle: suspension in saline); 117 % of control (dose: 6.25 mg/kg/injection, schedule: Q01DX005 (ip), vehicle: suspension in saline); 153 % of control (dose: 6.25 mg/kg/injection, schedule: Q01DX009 (ip), vehicle: saline); 164 % of control (dose: 12.5 mg/kg/injection, schedule: Q01DX009 (ip), vehicle: saline).
In the case of `CSc1nc(SC)c2cn(Cc3ccccc3)nc2n1`, the T/C under setting [1] was 105 % of control, the T/C under setting [2] is 108 % of control and the T/C under setting [3] was 102 % of control.
Turning to `O=c1[nH]ccc2nncn12`, the T/C runs as follows: (dose: 100.0 mg/kg/injection, schedule: Q01DX001 (ip), vehicle: saline with Tween-80) 100 % of control; (dose: 200.0 mg/kg/injection, schedule: Q01DX001 (ip), vehicle: saline with Tween-80) 106 % of control; (dose: 400.0 mg/kg/injection, schedule: Q01DX001 (ip), vehicle: saline with Tween-80) 99 % of control.
Turning to `COc1ccc2sc(-c3ccccc3)cc(=O)c2c1`, the T/C reads like this: (dose: 50.0 mg/kg/injection, schedule: Q01DX005 (ip), vehicle: Klucel (hydroxypropylcellulose) (HPC)) 100 % of control; (dose: 100.0 mg/kg/injection, schedule: Q01DX005 (ip), vehicle: Klucel (hydroxypropylcellulose) (HPC)) 101 % of control; (dose: 200.0 mg/kg/injection, schedule: Q01DX005 (ip), vehicle: Klucel (hydroxypropylcellulose) (HPC)) 101 % of control.
`O=C1NC(=O)C(=C2C(=O)COC2=O)C(=O)N1`: the T/C was 103 % of control (dose: 60.0 mg/kg/injection, schedule: Q01DX005 (ip), vehicle: saline); 106 % of control (dose: 120.0 mg/kg/injection, schedule: Q01DX005 (ip), vehicle: saline); 104 % of control (dose: 240.0 mg/kg/injection, schedule: Q01DX005 (ip), vehicle: saline).
For `O=c1n(-c2ccccc2)c(=O)n2n1C1C3C4C3C2C2(F)C4C12` (stereo not given), the T/C (dose: 3.0 mg/kg/injection, schedule: Q04DX002 (ip), vehicle: Klucel (hydroxypropylcellulose) (HPC)) was 95 % of control; the T/C (dose: 6.0 mg/kg/injection, schedule: Q04DX002 (ip), vehicle: Klucel (hydroxypropylcellulose) (HPC)) is 101 % of control; the T/C (dose: 12.5 mg/kg/injection, schedule: Q04DX002 (ip), vehicle: Klucel (hydroxypropylcellulose) (HPC)) is 108 % of control.
As for `CN1C2Cc3cc4c(cc3[C@@]23Cc2ccc5c(c2[C@@H]1O3)OCO5)OCO4` (stereo not given in full), the T/C (dose: 8.0 mg/kg/injection, schedule: Q01DX005 (ip), vehicle: Klucel (hydroxypropylcellulose) (HPC)) was 94 % of control; the T/C (dose: 16.0 mg/kg/injection, schedule: Q01DX005 (ip), vehicle: Klucel (hydroxypropylcellulose) (HPC)) is 109 % of control; the T/C (dose: 32.0 mg/kg/injection, schedule: Q01DX005 (ip), vehicle: Klucel (hydroxypropylcellulose) (HPC)) was 94 % of control; the T/C (dose: 64.0 mg/kg/injection, schedule: Q01DX005 (ip), vehicle: Klucel (hydroxypropylcellulose) (HPC)) is 98 % of control.
Take `CN1N=C(c2ccccc2O)/C(=C/c2c(-c3ccccc3O)[nH]n(C)c2=O)C1=O`: the T/C by setting is: under setting [4], 94 % of control; under setting [5], 86 % of control; under setting [6], 87 % of control.
Regarding `CCCC(N)C(=O)NC(Cc1c[nH]c2ccccc12)C(=O)O` (stereo not given), the T/C was 101 % of control under setting [1], 102 % of control under setting [2] and 103 % of control under setting [3].
Regarding `CCCCCC(O)CC(O)CC(=O)CCCC(=O)CC(O)CC(=O)CCCCCC(O)CC(O)CC(=O)CCCC(=O)CC(O)CC(=O)CCCC(C)=O` (stereo not given) (tested in a mixture with another compound), the T/C (dose: 0.62 mg/kg/injection, schedule: Q01DX005 (ip), vehicle: DMSO) was 91 % of control; the T/C (dose: 1.25 mg/kg/injection, schedule: Q01DX005 (ip), vehicle: DMSO) was 91 % of control; the T/C (dose: 2.5 mg/kg/injection, schedule: Q01DX005 (ip), vehicle: DMSO) is 90 % of control; the T/C (dose: 5.0 mg/kg/injection, schedule: Q01DX005 (ip), vehicle: DMSO) is 92 % of control; the T/C (dose: 10.0 mg/kg/injection, schedule: Q01DX005 (ip), vehicle: DMSO) was 100 % of control; the T/C (dose: 20.0 mg/kg/injection, schedule: Q01DX005 (ip), vehicle: DMSO) was 93 % of control.
Turning to `C=CC1(OC)CC1C(=O)OCC` (stereo not given), the T/C is 99 % of control (dose: 43.0 mg/kg/injection, schedule: Q01DX005 (ip), vehicle: Klucel (hydroxypropylcellulose) (HPC)); 112 % of control (dose: 86.0 mg/kg/injection, schedule: Q01DX005 (ip), vehicle: Klucel (hydroxypropylcellulose) (HPC)); 97 % of control (dose: 172.0 mg/kg/injection, schedule: Q01DX005 (ip), vehicle: Klucel (hydroxypropylcellulose) (HPC)).
As to `Nc1[nH]c(=S)ncc1-c1ccccc1Cl`, the T/C under setting [4] was 98 % of control, the T/C under setting [5] is 95 % of control and the T/C under setting [6] is 93 % of control.
In the case of `Ic1ccccc1C[N+]12CN3CN(CN(C3)C1)C2`, the T/C (dose: 100.0 mg/kg/injection, schedule: Q04DX003 (ip), vehicle: saline with Tween-80) was 120 % of control and the T/C (dose: 200.0 mg/kg/injection, schedule: Q04DX003 (ip), vehicle: saline with Tween-80) was 115 % of control.
On to `CC(C)N(CCO)CCO`, for which the T/C is 104 % of control (dose: 50.0 mg/kg/injection, schedule: Q01DX005 (ip), vehicle: saline); 98 % of control (dose: 100.0 mg/kg/injection, schedule: Q01DX005 (ip), vehicle: saline); 100 % of control (dose: 200.0 mg/kg/injection, schedule: Q01DX005 (ip), vehicle: saline).
As for `OC1CCCCCC2CC12` (stereo not given) (tested in a mixture with another compound), the T/C (dose: 50.0 mg/kg/injection, schedule: Q01DX009 (ip), vehicle: other) was 102 % of control; the T/C (dose: 100.0 mg/kg/injection, schedule: Q01DX009 (ip), vehicle: other) is 103 % of control; the T/C (dose: 200.0 mg/kg/injection, schedule: Q01DX009 (ip), vehicle: other) is 96 % of control.
For the molecule `O=C1CN(c2ccccc2)C(=O)CN1Nc1ccccc1`, the T/C (dose: 50.0 mg/kg/injection, schedule: Q01DX009 (ip), vehicle: saline with Tween-80) is 93 % of control and the T/C (dose: 100.0 mg/kg/injection, schedule: Q01DX009 (ip), vehicle: saline with Tween-80) is 93 % of control.
`c1ccc2c(SCCNCCSc3c4ccccc4nc4ccccc34)c3ccccc3nc2c1`: the T/C is, setting by setting: (dose: 60.0 mg/kg/injection, schedule: Q01DX005 (ip), vehicle: Klucel (hydroxypropylcellulose) (HPC)) 106 % of control; (dose: 120.0 mg/kg/injection, schedule: Q01DX005 (ip), vehicle: Klucel (hydroxypropylcellulose) (HPC)) 105 % of control; (dose: 240.0 mg/kg/injection, schedule: Q01DX005 (ip), vehicle: Klucel (hydroxypropylcellulose) (HPC)) 106 % of control.
As to `O=C(O)C1CSC2(CCCC2)N1` (stereo not given), the T/C is, setting by setting: (dose: 100.0 mg/kg/injection, schedule: Q04DX003 (ip), vehicle: saline) 101 % of control; (dose: 200.0 mg/kg/injection, schedule: Q04DX003 (ip), vehicle: saline) 98 % of control; (dose: 400.0 mg/kg/injection, schedule: Q04DX003 (ip), vehicle: saline) 98 % of control.
With `CC1OC(c2ccc3c(c2O)C(=O)C2=C(C3=O)[C@H]3OC(=O)C[C@H]3O[C@@H]2C)CC(N(C)C)C1O` (stereo not given in full), the T/C was 91 % of control (dose: 1.5 mg/kg/injection, schedule: Q01DX005 (ip), vehicle: other); 86 % of control (dose: 750.0 micrograms/kg/injection, schedule: Q01DX005 (ip), vehicle: other); 90 % of control (dose: 1500.0 micrograms/kg/injection, schedule: Q01DX005 (ip), vehicle: other); 88 % of control (dose: 3000.0 micrograms/kg/injection, schedule: Q01DX005 (ip), vehicle: other).

For the origin of these results see PubChem BioAssay AID330 (DTP/NCI, 2004).
